Results taken from US8410112B2, “Compounds useful as inhibitors of ATR kinase” (Vertex Pharmaceuticals Incorporated, priority 2008, dated 2013).
pKi: −log10 of the molar value.

What follows are compounds tested against T1, full-length ATR (Homo sapiens, UniProt Q13535) (assay: ATR Inhibition Assay (radioactive-phosphate incorporation)). Conditions: Ki(app); 5 nM full-length ATR, 10 μM ATP, 800 μM target peptide, 25° C.
T1 construct: in the presence of 5 nM full-length ATR
Format: biochemical
Experimental: Test compounds were screened for their ability to inhibit ATR kinase using a radioactive-phosphate incorporation assay. Assays were carried out in a mixture of 50 mM
Tris/HCl (pH 7.5), 10 mM MgCl2 and 1 mM DTT. Final substrate concentrations were 10 μM [γ-33P]ATP (3 mCi 33 P ATP/mmol ATP, Perkin Elmer) and 800 μM target peptide ([…]). Assays were carried out at 25° C. in the presence of 5 nM full-length ATR. An assay stock buffer solution was prepared containing all of the reagents listed above, with the exception of ATP and the test compound of interest. […] The plate was pre-incubated for 10 minutes at 25° C. and the reaction initiated by addition of 15 μL [γ-33P]ATP (final concentration 10 μM).
The reaction was stopped after […] by the addition of 30 μL 0.1M phosphoric acid containing 2 mM ATP. A multiscreen phosphocellulose filter 96-well plate (Millipore, Cat no. MAPHN0B50) was pretreated with 100 μL 0.2M phosphoric acid prior to the addition of 45 μL of the stopped assay mixture. The plate was washed with 5×200 μL 0.2M phosphoric acid.
After removing mean background values for all of the data points, Ki(app) data were calculated from non-linear regression analysis of the initial rate data using the Prism software package (GraphPad Prism version 3.0cx for Macintosh, GraphPad Software, San Diego Calif., USA).

T1 sequence (Q13535 whole entry): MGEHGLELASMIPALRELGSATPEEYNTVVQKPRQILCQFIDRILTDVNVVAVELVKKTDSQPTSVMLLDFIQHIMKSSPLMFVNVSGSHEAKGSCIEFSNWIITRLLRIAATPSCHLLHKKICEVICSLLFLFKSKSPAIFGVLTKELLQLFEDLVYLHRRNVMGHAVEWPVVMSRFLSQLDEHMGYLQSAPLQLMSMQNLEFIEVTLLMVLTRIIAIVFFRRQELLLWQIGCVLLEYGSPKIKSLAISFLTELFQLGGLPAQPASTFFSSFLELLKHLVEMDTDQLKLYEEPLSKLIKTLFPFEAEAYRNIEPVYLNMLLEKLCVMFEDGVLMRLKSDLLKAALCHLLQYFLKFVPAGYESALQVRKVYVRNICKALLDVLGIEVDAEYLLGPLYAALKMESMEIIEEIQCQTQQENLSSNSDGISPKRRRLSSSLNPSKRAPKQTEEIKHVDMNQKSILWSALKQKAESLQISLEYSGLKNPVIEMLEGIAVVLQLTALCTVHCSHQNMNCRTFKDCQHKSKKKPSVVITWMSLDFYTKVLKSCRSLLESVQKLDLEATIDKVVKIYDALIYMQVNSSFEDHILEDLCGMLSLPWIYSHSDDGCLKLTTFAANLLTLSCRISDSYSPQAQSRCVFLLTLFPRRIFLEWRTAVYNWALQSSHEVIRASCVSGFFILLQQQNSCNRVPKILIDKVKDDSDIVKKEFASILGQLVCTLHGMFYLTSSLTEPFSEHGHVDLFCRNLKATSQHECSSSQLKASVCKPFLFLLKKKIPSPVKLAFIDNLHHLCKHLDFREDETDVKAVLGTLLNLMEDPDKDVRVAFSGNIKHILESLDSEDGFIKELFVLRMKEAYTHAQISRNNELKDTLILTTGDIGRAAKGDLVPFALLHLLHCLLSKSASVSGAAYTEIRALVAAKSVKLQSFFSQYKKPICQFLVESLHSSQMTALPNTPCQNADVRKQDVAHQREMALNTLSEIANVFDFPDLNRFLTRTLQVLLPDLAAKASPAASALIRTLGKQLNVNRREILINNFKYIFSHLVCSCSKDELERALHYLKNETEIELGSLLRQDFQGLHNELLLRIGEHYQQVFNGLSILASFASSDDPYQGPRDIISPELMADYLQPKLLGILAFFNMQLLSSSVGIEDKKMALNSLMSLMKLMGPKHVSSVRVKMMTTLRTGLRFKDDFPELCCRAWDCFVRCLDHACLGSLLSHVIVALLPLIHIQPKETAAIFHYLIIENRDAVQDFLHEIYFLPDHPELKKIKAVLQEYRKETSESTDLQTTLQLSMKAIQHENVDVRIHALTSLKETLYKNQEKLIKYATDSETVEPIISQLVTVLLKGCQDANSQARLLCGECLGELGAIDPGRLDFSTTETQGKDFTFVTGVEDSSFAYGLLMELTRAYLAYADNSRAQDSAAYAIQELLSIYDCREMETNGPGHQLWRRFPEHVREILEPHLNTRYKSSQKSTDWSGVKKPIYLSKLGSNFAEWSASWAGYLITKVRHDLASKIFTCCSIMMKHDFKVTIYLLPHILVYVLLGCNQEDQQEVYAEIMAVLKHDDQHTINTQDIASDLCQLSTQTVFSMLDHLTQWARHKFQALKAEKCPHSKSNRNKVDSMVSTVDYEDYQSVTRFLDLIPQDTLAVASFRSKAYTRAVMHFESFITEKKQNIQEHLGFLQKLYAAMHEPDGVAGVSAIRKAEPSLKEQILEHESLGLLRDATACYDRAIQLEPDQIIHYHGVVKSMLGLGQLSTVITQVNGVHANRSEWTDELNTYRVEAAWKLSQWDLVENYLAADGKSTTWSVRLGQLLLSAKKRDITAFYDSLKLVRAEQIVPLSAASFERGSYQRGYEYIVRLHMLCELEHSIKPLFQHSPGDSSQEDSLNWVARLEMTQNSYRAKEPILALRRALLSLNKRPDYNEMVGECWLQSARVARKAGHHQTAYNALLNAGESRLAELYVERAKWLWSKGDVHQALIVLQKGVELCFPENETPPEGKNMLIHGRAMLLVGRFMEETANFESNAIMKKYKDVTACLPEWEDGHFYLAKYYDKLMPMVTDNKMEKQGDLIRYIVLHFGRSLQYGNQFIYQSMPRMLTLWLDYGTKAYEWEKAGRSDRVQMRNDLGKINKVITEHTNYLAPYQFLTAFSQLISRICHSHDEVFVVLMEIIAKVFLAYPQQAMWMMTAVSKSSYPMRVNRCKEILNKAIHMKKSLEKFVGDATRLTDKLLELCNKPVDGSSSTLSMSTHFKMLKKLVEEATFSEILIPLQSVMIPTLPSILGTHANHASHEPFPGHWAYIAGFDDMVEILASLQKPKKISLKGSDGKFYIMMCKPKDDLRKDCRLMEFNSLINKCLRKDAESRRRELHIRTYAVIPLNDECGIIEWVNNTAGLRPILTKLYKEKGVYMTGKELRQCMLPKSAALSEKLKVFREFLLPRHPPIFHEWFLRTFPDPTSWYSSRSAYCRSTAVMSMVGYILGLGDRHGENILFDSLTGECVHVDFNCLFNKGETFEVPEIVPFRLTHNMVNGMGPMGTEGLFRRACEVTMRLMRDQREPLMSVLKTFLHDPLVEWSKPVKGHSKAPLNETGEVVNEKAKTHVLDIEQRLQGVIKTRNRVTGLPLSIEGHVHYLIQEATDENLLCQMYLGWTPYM

Q: How did the pKi turn out when CCS(=O)(=O)N1CCN(c2cnc(N)c(-c3cc(-c4ccccc4)ncn3)n2)CC1 [Compound I-74, 5-(4-(ethylsulfonyl)piperazin-1-yl)-3-(6-phenylpyrimidin-4-yl)pyrazin-2-amine] was run?
A: 6.00 to 7.00

Q: Nc1ncc(N2CCCC2=O)nc1-c1nc2ccccc2[nH]1 [Compound I-75, 1-(5-amino-6-(1H-benzo[d]imidazol-2-yl)pyrazin-2-yl)pyrrolidin-2-one] was tested. Which pKi did it give?
A: 5.00 to 6.00

Q: How did the pKi turn out when N#CCN1CC=C(c2cnc(N)c(-c3nc4ccccc4[nH]3)n2)CC1 [Compound I-76, 2-(4-(5-amino-6-(1H-benzo[d]imidazol-2-yl)pyrazin-2-yl)-5,6-dihydropyridin-1(2H)-yl)ethanenitrile] was run?
A: 6.00 to 7.00

Q: How did the pKi turn out when CNC(=O)[C@@H]1CCN(c2cnc(N)c(-c3nc4ccc(C)cc4[nH]3)n2)C1 [Compound I-77, (R)-1-(5-amino-6-(6-methyl-1H-benzo[d]imidazol-2-yl)pyrazin-2-yl)-N-methylpyrrolidine-3-carboxamide] was run?
A: 5.00 to 6.00

Q: With CN1CCC(C(=O)N2CC=C(c3cnc(N)c(-c4nc5ccccc5[nH]4)n3)CC2)CC1 [Compound I-78, (4-(5-amino-6-(1H-benzo[d]imidazol-2-yl)pyrazin-2-yl)-5,6-dihydropyridin-1(2H)-yl)(1-methylpiperidin-4-yl)methanone] as the compound, how does the pKi read?
A: 6.00 to 7.00

Q: How did the pKi turn out when Nc1ncc(C2=CCN(S(=O)(=O)c3cccs3)CC2)nc1-c1nc2ccccc2[nH]1 [Compound I-79, 3-(1H-benzo[d]imidazol-2-yl)-5-(1-(thiophen-2-ylsulfonyl)-1,2,3,6-tetrahydropyridin-4-yl)pyrazin-2-amine] was run?
A: > 7.00

Q: With Nc1ncc(N2CCN(S(=O)(=O)c3ccsc3)CC2)nc1-c1nc2ccccc2[nH]1 [Compound I-80, 3-(1H-benzo[d]imidazol-2-yl)-5-(4-(thiophen-3-ylsulfonyl)piperazin-1-yl)pyrazin-2-amine] as the compound, how does the pKi read?
A: 6.00 to 7.00

Q: How did the pKi turn out when CN(C)S(=O)(=O)N1CCN(c2cnc(N)c(C(=O)Nc3ccccn3)n2)CC1 [Compound I-81, 3-amino-6-(4-(N,N-dimethylsulfamoyl)piperazin-1-yl)-N-(pyridin-2-yl)pyrazine-2-carboxamide] was run?
A: 5.00 to 6.00

Q: Nc1ncc(C2=CCN(C(=O)c3ccccc3)CC2)nc1-c1nc2ccccc2[nH]1 [Compound I-82, (4-(5-amino-6-(1H-benzo[d]imidazol-2-yl)pyrazin-2-yl)-5,6-dihydropyridin-1(2H)-yl)(phenyl)methanone] was tested. Which pKi did it give?
A: > 7.00

Q: CN(C)S(=O)(=O)N1CCN(c2cnc(N)c(-c3nnc(-c4ccccc4)o3)n2)CC1 [Compound I-83, 4-(5-amino-6-(5-phenyl-1,3,4-oxadiazol-2-yl)pyrazin-2-yl)-N,N-dimethylpiperazine-1-sulfonamide] was tested. Which pKi did it give?
A: 6.00 to 7.00

Q: With CN(C)S(=O)(=O)N1CC=C(c2cnc(N)c(-c3nnc(-c4ccccc4)o3)n2)CC1 [Compound I-84, 4-(5-amino-6-(5-phenyl-1,3,4-oxadiazol-2-yl)pyrazin-2-yl)-N,N-dimethyl-5,6-dihydropyridine-1(2H)-sulfonamide] as the compound, how does the pKi read?
A: > 7.00

Q: How did the pKi turn out when CN(C)S(=O)(=O)N[C@H]1CCN(c2cnc(N)c(-c3nc4ccccc4[nH]3)n2)C1 [Compound I-85, (S)-N-(1-(5-amino-6-(1H-benzo[d]imidazol-2-yl)pyrazin-2-yl)pyrrolidin-3-yl)propane-2-N,N-dimethylsulfamide] was run?
A: 5.00 to 6.00

Q: CS(=O)(=O)N1CCN(c2cnc(N)c(-c3nc4ccccc4[nH]3)n2)CC1 [Compound I-86, 3-(1H-benzo[d]imidazol-2-yl)-5-(4-(methylsulfonyl)piperazin-1-yl)pyrazin-2-amine] was tested. Which pKi did it give?
A: 6.00 to 7.00

Q: With Cn1cnc(S(=O)(=O)N2CCN(c3cnc(N)c(-c4nnc(-c5ccccc5)o4)n3)CC2)c1 [Compound I-87, 5-(4-(1-methyl-1H-imidazol-4-ylsulfonyl)piperazin-1-yl)-3-(5-phenyl-1,3,4-oxadiazol-2-yl)pyrazin-2-amine] as the compound, how does the pKi read?
A: 6.00 to 7.00

Q: With CN(C)S(=O)(=O)N1CCN(c2cnc(N)c(-c3nc4ccccc4[nH]3)n2)CC1 [Compound I-88, 4-(5-amino-6-(1H-benzo[d]imidazol-2-yl)pyrazin-2-yl)-N,N-dimethylpiperazine-1-sulfonamide] as the compound, how does the pKi read?
A: 6.00 to 7.00
